Test results taken from PMC8229129, “Local Colonic Administration of a Serine Protease Inhibitor Improves Post-Inflammatory Visceral Hypersensitivity in Rats” (Pharmaceutics, 2021).

How the values were obtained:
[1] = test system: trypsin-like activity in colonic tissue; assay: Trypsin-like activity in colonic tissue after intracolonic administration (fluorogenic substrates); format: in vivo, Sprague–Dawley rats; conditions: post-colitis rats, 5 mg/kg intracolonic, colon harvested 90 min after administration, median (IQR), n = 12; vehicle 1.08 (1.19), p < 0.01
Description: (§1) The serine protease inhibitor UAMC-00050 (0.1–1.0–2.5–5.0 mg/kg, dissolved in a volume of 200 µL) or its vehicle (5% DMSO in H2O) was delivered colonically using a flexible catheter (18 G, length 4.5 cm) under short-lasting isoflurane anesthesia (5.0% induction, 1.5% maintenance). To prevent expulsion of the enema, animals were held in a Trendelenburg position for 90 s. Doses for intracolonic administration were based on the doses known to be effective via an i.p. administration and adapted afterwards based on preliminary results.
(§2) Trypsin-like, chymotrypsin-like, cathepsin G, elastase-like, and kallikrein activities were determined in colon tissue and fecal samples to profile serine protease activity. […]
(§3) Boc-Gln-Ala-Arg-AMC (75 µM) and n-Tosyl-Gly-Pro-Arg-AMC (100 µM) in 50 mM Tris-HCl pH 8.0 containing 120 mM NaCl were used to measure the trypsin-like activity. […] The fluorescence was measured during 20 min at 37 °C on a Tecan Infinite F200 Pro microtiter plate reader. The other activities were assessed in a similar assay, using the substrates mentioned below. Chymotrypsin-like and kallikrein activity were measured with Suc-Ala-Ala-Pro-Phe-AMC (0.45 mM) and H-Pro-Phe-Arg-AMC (0.45 mM), respectively. Elastase-like activity was measured using two assays, one using Suc-Ala-Ala-Pro-Val-AMC as a substrate and the other using Suc-Ala-Ala-Ala-AMC (both 0.45 mM). […]

[2] = Observation of side-effects after administration in pharmacokinetic experiments; format: in vivo; conditions: rats, within 180 min after administration (1 mg/kg i.v. or 5 mg/kg intracolonic)
Description: To evaluate the pharmacokinetic properties of UAMC-00050, it was administered in male Sprague–Dawley rats (200–225 g) either colonically (5 mg/kg, in a volume of 200 µL 5% DMSO solution) or intravenously (1 mg/kg in a volume of 200 µL 5% DMSO solution). Plasma samples were collected after 5, 15, 30, 45, 60, 90, 120, and 180 min via the tail vein and stored at −80 °C until analysis.

pancreatic elastase = pancreatic elastase (Homo sapiens, UniProt Q9UNI1); assay: Inhibition of pancreatic elastase by UAMC-00050 (IC50); format: biochemical; conditions: in vitro
pancreatic elastase, sequence (Q9UNI1 19-258): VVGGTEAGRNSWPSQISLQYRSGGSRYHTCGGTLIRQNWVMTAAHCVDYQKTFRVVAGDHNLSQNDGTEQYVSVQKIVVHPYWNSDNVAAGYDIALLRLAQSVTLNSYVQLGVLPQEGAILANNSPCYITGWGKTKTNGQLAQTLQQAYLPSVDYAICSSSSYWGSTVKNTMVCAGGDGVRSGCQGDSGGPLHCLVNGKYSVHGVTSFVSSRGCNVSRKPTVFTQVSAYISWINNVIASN
Description: (§4) Here, the potency of UAMC-00050 to inhibit two other serine proteases, chymotrypsin and pancreatic elastase, with specificity was determined.

chymotrypsin = chymotrypsin (Bos taurus, UniProt P00766); assay: Inhibition of chymotrypsin by UAMC-00050 (IC50); format: biochemical; conditions: in vitro
Description: as §4

kallikrein 8 = test system: kallikrein 8; set-up: method as in PMID 29911328; conditions: in vitro; cited from earlier work
kallikrein 4 = test system: kallikrein 4; set-up: method as in PMID 29911328; conditions: in vitro; cited from earlier work
[3] = test system: chymotrypsin-like activity in colonic tissue; assay: Chymotrypsin-like activity in colonic tissue after intracolonic administration (Suc-Ala-Ala-Pro-Phe-AMC); format: in vivo, Sprague–Dawley rats; conditions: post-colitis rats, 5 mg/kg intracolonic, colon harvested 90 min after administration, median (IQR), n = 12; vehicle 1.54 (1.06), p < 0.05
Description: as §1, §2, §3

[4] = test system: trypsin-like, chymotrypsin-like, cathepsin G, elastase-like, and kallikrein activities in colon tissue; assay: Proteolytic activities in colonic tissue of control rats after intracolonic administration; format: in vivo, Sprague–Dawley rats; conditions: 5 mg/kg intracolonic
Description: as §1, §2, §3

plasmin = test system: plasmin; set-up: method as in PMID 29911328; conditions: in vitro; cited from earlier work
[5] = test system: inflammatory infiltrate and mucosal architecture of distal colon; assay: Microscopic score of the distal colon; format: in vivo, Sprague–Dawley rats; conditions: for Microscopy, Day of VMR: score 0–10, mean ± SEM, n = 8
Description: For microscopic evaluation, a representative section of the distal colon (1 cm^2) was fixed in 4% formaldehyde for 24 h and embedded in paraffin for hematoxylin and eosin staining. Transverse sections (5 µm) were scored for the presence of inflammatory infiltrate and alterations in mucosal architecture, as previously described (total score 0–10, Supplementary Table S3).

matriptase = test system: matriptase; set-up: method as in PMID 29911328; conditions: in vitro; cited from earlier work

In the case of `CC(=O)Nc1ccc(OP(=O)(Oc2ccc(NC(C)=O)cc2)C(Cc2ccc(N=C(N)N)cc2)NC(=O)OCc2ccccc2)cc1.Cl` (stereo not shown) [UAMC-00050], the “Trypsin-like activity in colonic tissue (Tos-Gly-Pro-Arg-AMC)” value [1] is reported as 0.23 (0.18) U/g, the Side-effects [2] is reported as “No side-effects” and the IC50 (pancreatic elastase) is reported as greater than 10 µM. For the same compound, the IC50 (chymotrypsin) was greater than 10 µM, the “inhibition of kallikrein 8” value (kallikrein 8) was “efficiently inhibits” and the “inhibition of kallikrein 4” value (kallikrein 4) was “efficiently inhibits”. For the same compound, the “Chymotrypsin-like activity in colonic tissue” value [3] was 0.84 (0.57) U/g, the “Effect on proteolytic activities in colonic tissue” value [4] was “did not alter” and the inhibition of plasmin (plasmin) was “efficiently inhibits”. For the same compound, the “Microscopy, Day of VMR” value ([5]; control rats, 5.0 mg/kg intracolonic) was 0.8 ± 0.4, the “Microscopy, Day of VMR” value ([5]; post-colitis rats, 0.1 mg/kg intracolonic) was 0.4 ± 0.4 and the “Microscopy, Day of VMR” value ([5]; post-colitis rats, 1.0 mg/kg intracolonic) was 0.8 ± 0.4. The “Microscopy, Day of VMR” value ([5]; post-colitis rats, 2.5 mg/kg intracolonic) was 0.5 ± 0.4, the “Microscopy, Day of VMR” value ([5]; post-colitis rats, 5.0 mg/kg intracolonic) was 0.6 ± 0.4 and the “Effect on microscopic evaluation of mucosal damage” value ([5]; single intracolonic administration, control and post-colitis rats) was “no effect”. The inhibition of matriptase (matriptase) was “efficiently inhibits”.
